In data set [1] the target is Nav 1.7 (Homo sapiens (Human), UniProt Q15858). As to the kind of experiment: in-vitro Nav 1.7 PX data. Type of data set: cell-based.
Data set [2] deals with Nav 1.5 (Homo sapiens (Human), UniProt Q14524). The data set is described as follows: in-vitro Nav 1.5 PX data. As to conditions: read-out: Nav 1.5 PX IC50.

Read-outs that look alike come from different tables or passages of the source. A value given as a limit tells only on which side of the number the result lay.

Chain of Nav 1.7 (Q15858 whole entry): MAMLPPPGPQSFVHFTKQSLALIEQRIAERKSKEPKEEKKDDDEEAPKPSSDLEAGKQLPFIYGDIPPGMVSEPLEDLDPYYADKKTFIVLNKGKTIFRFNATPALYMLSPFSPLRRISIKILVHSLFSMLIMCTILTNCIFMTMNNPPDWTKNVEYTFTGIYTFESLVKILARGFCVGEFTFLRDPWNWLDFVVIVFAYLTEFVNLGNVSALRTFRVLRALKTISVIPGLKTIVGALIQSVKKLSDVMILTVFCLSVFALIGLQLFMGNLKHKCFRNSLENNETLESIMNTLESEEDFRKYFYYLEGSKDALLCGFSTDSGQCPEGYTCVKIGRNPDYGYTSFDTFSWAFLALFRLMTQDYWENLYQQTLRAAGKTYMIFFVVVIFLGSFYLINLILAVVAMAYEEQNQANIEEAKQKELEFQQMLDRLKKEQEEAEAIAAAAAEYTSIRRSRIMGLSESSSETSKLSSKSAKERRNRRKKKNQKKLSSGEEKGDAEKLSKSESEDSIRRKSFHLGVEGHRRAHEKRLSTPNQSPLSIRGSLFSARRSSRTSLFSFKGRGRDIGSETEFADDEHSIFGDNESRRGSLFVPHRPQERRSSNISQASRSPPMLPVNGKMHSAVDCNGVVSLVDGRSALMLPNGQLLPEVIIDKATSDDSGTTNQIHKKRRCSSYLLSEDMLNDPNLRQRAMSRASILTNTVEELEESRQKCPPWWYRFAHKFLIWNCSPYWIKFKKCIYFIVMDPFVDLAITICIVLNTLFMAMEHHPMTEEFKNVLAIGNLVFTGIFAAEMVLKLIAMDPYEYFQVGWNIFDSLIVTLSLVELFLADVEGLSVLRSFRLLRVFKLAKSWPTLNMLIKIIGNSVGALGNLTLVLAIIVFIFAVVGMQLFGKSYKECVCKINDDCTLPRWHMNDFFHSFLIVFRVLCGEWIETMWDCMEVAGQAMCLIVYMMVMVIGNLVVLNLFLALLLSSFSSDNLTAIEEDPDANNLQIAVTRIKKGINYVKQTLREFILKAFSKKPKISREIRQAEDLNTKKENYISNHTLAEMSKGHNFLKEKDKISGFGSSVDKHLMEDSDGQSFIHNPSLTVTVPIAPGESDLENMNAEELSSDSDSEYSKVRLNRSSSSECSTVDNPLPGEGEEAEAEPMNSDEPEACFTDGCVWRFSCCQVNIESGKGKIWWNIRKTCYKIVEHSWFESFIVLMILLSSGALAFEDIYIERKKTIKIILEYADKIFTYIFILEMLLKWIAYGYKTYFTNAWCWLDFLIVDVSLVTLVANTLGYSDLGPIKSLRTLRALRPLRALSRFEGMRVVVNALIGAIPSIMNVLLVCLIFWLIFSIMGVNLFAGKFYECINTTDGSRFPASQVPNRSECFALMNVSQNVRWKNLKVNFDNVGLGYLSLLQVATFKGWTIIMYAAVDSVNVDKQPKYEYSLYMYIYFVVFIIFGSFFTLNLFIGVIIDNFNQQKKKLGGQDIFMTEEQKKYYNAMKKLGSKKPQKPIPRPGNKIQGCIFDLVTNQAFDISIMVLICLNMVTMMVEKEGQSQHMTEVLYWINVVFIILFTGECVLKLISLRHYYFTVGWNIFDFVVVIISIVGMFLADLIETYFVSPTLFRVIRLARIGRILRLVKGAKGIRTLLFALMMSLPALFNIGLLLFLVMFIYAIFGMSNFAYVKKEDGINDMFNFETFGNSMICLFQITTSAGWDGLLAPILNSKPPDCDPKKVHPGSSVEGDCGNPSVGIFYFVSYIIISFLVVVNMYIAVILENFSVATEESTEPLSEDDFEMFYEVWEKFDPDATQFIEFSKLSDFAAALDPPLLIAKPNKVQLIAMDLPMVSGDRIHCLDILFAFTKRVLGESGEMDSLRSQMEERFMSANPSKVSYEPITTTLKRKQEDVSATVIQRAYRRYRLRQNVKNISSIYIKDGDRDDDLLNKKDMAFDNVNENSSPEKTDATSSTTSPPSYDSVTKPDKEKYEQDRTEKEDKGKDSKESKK
Chain of Nav 1.5 (Q14524 whole entry): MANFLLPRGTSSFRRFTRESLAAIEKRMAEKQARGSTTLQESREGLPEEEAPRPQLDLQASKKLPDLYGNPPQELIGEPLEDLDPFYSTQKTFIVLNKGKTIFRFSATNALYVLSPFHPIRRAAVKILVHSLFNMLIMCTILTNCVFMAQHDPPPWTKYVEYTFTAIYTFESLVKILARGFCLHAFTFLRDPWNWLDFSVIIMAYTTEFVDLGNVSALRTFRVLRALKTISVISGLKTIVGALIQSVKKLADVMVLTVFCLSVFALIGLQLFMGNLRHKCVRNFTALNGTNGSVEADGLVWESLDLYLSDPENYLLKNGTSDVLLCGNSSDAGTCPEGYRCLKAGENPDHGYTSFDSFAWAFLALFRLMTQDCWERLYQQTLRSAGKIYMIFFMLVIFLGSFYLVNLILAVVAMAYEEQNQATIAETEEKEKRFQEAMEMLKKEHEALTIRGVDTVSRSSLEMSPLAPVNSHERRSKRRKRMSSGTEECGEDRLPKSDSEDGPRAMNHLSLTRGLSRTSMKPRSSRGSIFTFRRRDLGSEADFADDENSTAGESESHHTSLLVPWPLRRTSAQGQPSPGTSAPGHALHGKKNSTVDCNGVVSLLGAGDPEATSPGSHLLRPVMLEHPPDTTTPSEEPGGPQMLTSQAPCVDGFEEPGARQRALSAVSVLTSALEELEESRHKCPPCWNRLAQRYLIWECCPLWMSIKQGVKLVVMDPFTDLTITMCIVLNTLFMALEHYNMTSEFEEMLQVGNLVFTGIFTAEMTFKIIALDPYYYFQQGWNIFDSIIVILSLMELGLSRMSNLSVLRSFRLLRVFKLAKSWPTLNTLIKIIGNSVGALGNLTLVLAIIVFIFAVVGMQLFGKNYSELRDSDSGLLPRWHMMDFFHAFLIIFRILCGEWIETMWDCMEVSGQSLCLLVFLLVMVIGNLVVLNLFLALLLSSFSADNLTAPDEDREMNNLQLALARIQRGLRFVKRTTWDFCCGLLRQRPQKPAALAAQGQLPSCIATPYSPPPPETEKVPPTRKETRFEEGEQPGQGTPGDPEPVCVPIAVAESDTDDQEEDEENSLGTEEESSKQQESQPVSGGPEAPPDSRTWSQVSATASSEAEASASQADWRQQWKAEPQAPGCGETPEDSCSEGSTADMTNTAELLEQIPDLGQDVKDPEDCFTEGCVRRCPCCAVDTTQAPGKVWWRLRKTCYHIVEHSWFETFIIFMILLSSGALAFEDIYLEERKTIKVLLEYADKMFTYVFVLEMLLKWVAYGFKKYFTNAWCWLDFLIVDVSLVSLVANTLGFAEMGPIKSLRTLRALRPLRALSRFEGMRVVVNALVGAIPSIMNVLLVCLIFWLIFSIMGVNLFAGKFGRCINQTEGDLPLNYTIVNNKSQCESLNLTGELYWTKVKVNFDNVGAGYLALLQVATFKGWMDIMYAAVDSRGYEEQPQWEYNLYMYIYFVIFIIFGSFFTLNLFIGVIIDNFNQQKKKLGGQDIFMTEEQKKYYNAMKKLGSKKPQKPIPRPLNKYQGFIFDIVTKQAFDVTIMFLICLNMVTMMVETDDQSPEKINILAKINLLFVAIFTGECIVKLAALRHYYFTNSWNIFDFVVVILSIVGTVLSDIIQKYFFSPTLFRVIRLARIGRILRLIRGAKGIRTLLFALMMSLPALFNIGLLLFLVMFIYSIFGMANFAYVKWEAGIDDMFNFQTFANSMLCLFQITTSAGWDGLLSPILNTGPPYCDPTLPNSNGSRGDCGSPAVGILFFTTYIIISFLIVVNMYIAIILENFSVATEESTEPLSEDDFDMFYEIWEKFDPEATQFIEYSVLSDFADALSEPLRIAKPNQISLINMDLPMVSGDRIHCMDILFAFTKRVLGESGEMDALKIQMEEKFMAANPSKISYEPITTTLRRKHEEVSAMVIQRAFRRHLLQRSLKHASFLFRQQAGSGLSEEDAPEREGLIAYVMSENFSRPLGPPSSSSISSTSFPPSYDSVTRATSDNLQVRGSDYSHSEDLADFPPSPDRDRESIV

Consider “1-(2-chloro-3′-fluoro-5-methoxy-4-biphenylyl)-N-2-pyrimidinyl-6-isoquinolinesulfonamide [Example 108]”, for which the IC50 in data set [1] (in-vitro PX data) was 86.2 nM; in data set [2] (in-vitro PX data), above 10000 nM.

For “1-(2-cyano-5-methoxy-2′-methyl-4-biphenylyl)-N-1,3,4-thiadiazol-2-yl-6-isoquinolinesulfonamide [Example 220]”, the IC50 in data set [1] (in-vitro PX) was 40.1 nM; in data set [2] (in-vitro PX), above 10000 nM.

As for “1-(3′-chloro-2-cyano-5-methoxy-5′-methyl-4-biphenylyl)-N-1,3,4-thiadiazol-2-yl-6-isoquinolinesulfonamide [Example 225]”, the figures for the half-maximal inhibitory concentration (IC50) in data set [1] (in-vitro PX) and in data set [2] (in-vitro PX) were 11.1 nM and above 10000 nM, respectively.

In the case of “1-(5-cyano-4-(5-fluoro-2-methoxy-3-pyridinyl)-2-methoxyphenyl)-N-1,3,4-thiadiazol-2-yl-6-isoquinolinesulfonamide [Example 223]”, the IC50 in data set [1] (in-vitro PX) was 72.3 nM; in data set [2] (in-vitro PX), above 10000 nM.

As for `COc1cc(-c2cccc(C(F)(F)F)c2)c(C#N)cc1-c1nccc2cc(S(=O)(=O)Nc3ccon3)ccc12` [Example 1, 1-(2-CYANO-5-METHOXY-3′-(TRIFLUOROMETHYL)-[1,1′-BIPHENYL]-4-YL)-N-(ISOXAZOL-3-YL)ISOQUINOLINE-6-SULFONAMIDE], the half-maximal inhibitory concentration (IC50) was 54.7 nM in data set [1] (in-vitro Nav 1.7 PX data) and above 10000 nM in data set [2] (in-vitro Nav 1.5 PX data).

`COc1cc(-c2cc(F)cc(F)c2)ccc1-c1nccc2cc(S(=O)(=O)Nc3ccsn3)ccc12` [Example 5, 1-(3′,5′-DIFLUORO-3-METHOXY-[1,1′-BIPHENYL]-4-YL)-N-(ISOTHIAZOL-3-YL)ISOQUINOLINE-6-SULFONAMIDE 2,2,2-TRIFLUOROACETATE]: the IC50 is 337 nM in data set [1] and above 10000 nM in data set [2] (in-vitro PX data).

Regarding `COc1cc(-c2cccc(C(F)(F)F)c2)ccc1-c1nccc2cc(S(=O)(=O)Nc3ccon3)ccc12` [Example 6, N-(ISOXAZOL-3-YL)-1-(3-METHOXY-3′-(TRIFLUOROMETHYL)-[1,1′-BIPHENYL]-4-YL)ISOQUINOLINE-6-SULFONAMIDE], the IC50 is 78.9 nM in data set [1] and above 10000 nM in data set [2] (in-vitro PX data).

On to `COc1cc(-c2cccc(F)c2)c(Cl)cc1-c1nccc2cc(S(=O)(=O)Nc3ncon3)ccc12` [Example 7, 1-(2-CHLORO-3′-FLUORO-5-METHOXY-[1,1′-BIPHENYL]-4-YL)-N-(1,2,4-OXADIAZOL-3-YL)ISOQUINOLINE-6-SULFONAMIDE 2,2,2-TRIFLUOROACETATE], for which the IC50 in data set [1] was 47.7 nM; in data set [2] (in-vitro PX data), above 10000 nM.

In the case of `COc1cc(-c2cccc(F)c2)c(Cl)cc1-c1nncc2cc(S(=O)(=O)Nc3nncs3)ccc12` [Example 9, 1-(2-CHLORO-3′-FLUORO-5-METHOXY-[1,1′-BIPHENYL]-4-YL)-N-(1,3,4-THIADIAZOL-2-YL)PHTHALAZINE-6-SULFONAMIDE], the IC50 in data set [1] (in-vitro PX data) is 112 nM; in data set [2] (in-vitro PX data) it was above 10000 nM.

Turning to `COc1cc(-c2cccc(F)c2)c(Cl)cc1-c1nncc2cc(S(=O)(=O)Nc3ccon3)ccc12` [Example 10, 1-(2-CHLORO-3′-FLUORO-5-METHOXY-[1,1′-BIPHENYL]-4-YL)-N-(ISOXAZOL-3-YL)PHTHALAZINE-6-SULFONAMIDE], the IC50 was 84.1 nM in data set [1] (in-vitro PX data) and above 10000 nM in data set [2] (in-vitro PX data).

Regarding `COc1cc(-c2cccc(F)c2)c(Cl)cc1-c1n[nH]c(=O)c2cc(S(=O)(=O)Nc3nncs3)ccc12` [Example 14, 1-(2-CHLORO-3′-FLUORO-5-METHOXY-[1,1′-BIPHENYL]-4-YL)-4-OXO-N-(1,3,4-THIADIAZOL-2-YL)-3,4-DIHYDROPHTHALAZINE-6-SULFONAMIDE], the IC50 is 131 nM in data set [1] and above 10000 nM in data set [2] (in-vitro PX (PatchXpress) data).

`COc1cc(-c2cccc(F)c2)c(Cl)cc1-c1ncc(O)c2cc(S(=O)(=O)Nc3ccon3)ccc12` [Example 17, 1-(2-CHLORO-3′-FLUORO-5-METHOXY-[1,1′-BIPHENYL]-4-YL)-4-HYDROXY-N-(ISOXAZOL-3-YL)ISOQUINOLINE-6-SULFONAMIDE]: the results for the IC50 in data set [1] (in-vitro PX) and in data set [2] (in-vitro PX) were 85.1 nM and above 10000 nM, respectively.

Consider `COc1cc(-c2cc(F)cnc2OC)c(C#N)cc1-c1ncnc2cc(S(=O)(=O)Nc3nncs3)ccc12` [Example 20, 4-(5-CYANO-4-(5-FLUORO-2-METHOXYPYRIDIN-3-YL)-2-METHOXYPHENYL)-N-(1,3,4-THIADIAZOL-2-YL)QUINAZOLINE-7-SULFONAMIDE], for which the IC50 is 182 nM in data set [1] and above 10000 nM in data set [2] (in-vitro PX (PatchXpress) data).

`COc1cc(-c2cccc(F)c2)c(Cl)cc1-c1nn(C)c(=O)c2cc(S(=O)(=O)Nc3ccon3)ccc12` [Example 21, 1-(2-CHLORO-3′-FLUORO-5-METHOXY-[1,1′-BIPHENYL]-4-YL)-N-(ISOXAZOL-3-YL)-3-METHYL-4-OXO-3,4-DIHYDROPHTHALAZINE-6-SULFONAMIDE]: the IC50 in data set [1] was 42.4 nM; in data set [2] (in-vitro PX), above 10000 nM.

As to `COc1cc(-c2cccc(C(F)(F)F)c2)c(F)cc1-c1nn(C)c(=O)c2cc(S(=O)(=O)Nc3ccon3)ccc12` [Example 25, 1-(2-FLUORO-5-METHOXY-3′-(TRIFLUOROMETHYL)-[1,1′-BIPHENYL]-4-YL)-N-(ISOXAZOL-3-YL)-3-METHYL-4-OXO-3,4-DIHYDROPHTHALAZINE-6-SULFONAMIDE], the concentration for half-maximal inhibition (IC50) in data set [1] was 94.1 nM; in data set [2] (in-vitro PX) it was above 10000 nM.

Turning to `COc1cc(-c2cccc(F)c2)c(Cl)cc1-c1ncnc2cc(S(=O)(=O)Nc3ncon3)ccc12` [Example 26, 4-(2-CHLORO-3′-FLUORO-5-METHOXY-[1,1′-BIPHENYL]-4-YL)-N-(1,2,4-OXADIAZOL-3-YL)QUINAZOLINE-7-SULFONAMIDE], the figures for the IC50 in data set [1] (in-vitro PX) and in data set [2] (in-vitro PX) were 85 nM and above 10000 nM, respectively.

On to `COc1cc(-c2cccc(F)c2)c(Cl)cc1-c1ncc(C#N)c2cc(S(=O)(=O)Nc3ccon3)ccc12` [Example 27, 1-(2-CHLORO-3′-FLUORO-5-METHOXY-[1,1′-BIPHENYL]-4-YL)-4-CYANO-N-(ISOXAZOL-3-YL)ISOQUINOLINE-6-SULFONAMIDE], for which the IC50 in data set [1] is 282 nM; in data set [2] (in-vitro PX), above 10000 nM.

On to `COc1cc(-c2cc(F)cc(F)c2)c(C#N)cc1-c1nccc2cc(S(=O)(=O)Nc3ccncn3)ccc12` [Example 28, 1-(2-CYANO-3′,5′-DIFLUORO-5-METHOXY-[1,1′-BIPHENYL]-4-YL)-N-(PYRIMIDIN-4-YL)ISOQUINOLINE-6-SULFONAMIDE], for which the IC50 in data set [1] was 144 nM; in data set [2] (in-vitro Nav 1.5 PX data), above 10000 nM.

Turning to `COc1cc(-c2cc(F)cnc2OC)ccc1-c1nccc2cc(S(=O)(=O)Nc3nncs3)ccc12` [Example 30, 1-(4-(5-FLUORO-2-METHOXYPYRIDIN-3-YL)-2-METHOXYPHENYL)-N-(1,3,4-THIADIAZOL-2-YL)ISOQUINOLINE-6-SULFONAMIDE], the 50% inhibitory concentration (IC50) in data set [1] (in-vitro Nav 1.7 PX data) is 80.1 nM; in data set [2] (in-vitro Nav 1.5 PX data) it was above 30000 nM.

Consider `COc1cc(-c2cc(F)cnc2OC)ccc1-c1nccc2cc(S(=O)(=O)Nc3ccon3)ccc12` [Example 31, 1-(4-(5-FLUORO-2-METHOXYPYRIDIN-3-YL)-2-METHOXYPHENYL)-N-(ISOXAZOL-3-YL)ISOQUINOLINE-6-SULFONAMIDE], for which the IC50 in data set [1] (in-vitro PX (PatchXpress) data) was 169 nM; in data set [2] (in-vitro PX (PatchXpress) data), above 10000 nM.

On to `Cc1ccc(Oc2ccccc2)cc1-c1nccc2cc(S(=O)(=O)Nc3ccncn3)ccc12` [Example 39, 1-(2-METHYL-5-PHENOXYPHENYL)-N-(PYRIMIDIN-4-YL)ISOQUINOLINE-6-SULFONAMIDE], for which the IC50 was 488 nM in data set [1] (in-vitro Nav 1.7 PX data) and above 10000 nM in data set [2] (in-vitro Nav 1.5 PX data).

In the case of `COc1cc(-c2cccc(F)c2)c(Cl)cc1-c1nccc2cc(S(=O)(=O)Nc3ccon3)c(F)cc12` [Example 43, 1-(2-CHLORO-3′-FLUORO-5-METHOXY-[1,1′-BIPHENYL]-4-YL)-7-FLUORO-N-(ISOXAZOL-3-YL)ISOQUINOLINE-6-SULFONAMIDE], the IC50 in data set [1] (PatchXpress (PX), in vitro) was 45.6 nM; in data set [2] (PatchXpress (PX), in vitro), above 10000 nM.

In the case of `COc1cc(-c2cccc(F)c2)ccc1-c1nccc2cc(S(=O)(=O)Nc3ncns3)c(F)cc12` [Example 44, 7-FLUORO-1-(3′-FLUORO-3-METHOXY-[1,1′-BIPHENYL]-4-YL)-N-(1,2,4-THIADIAZOL-5-YL)ISOQUINOLINE-6-SULFONAMIDE], the IC50 in data set [1] is 48.8 nM; in data set [2] (PatchXpress (PX), in vitro), above 10000 nM.

As to `COc1cc(-c2ccccc2)ccc1-c1nccc2cc(S(=O)(=O)Nc3ccon3)ccc12` [Example 49, N-(ISOXAZOL-3-YL)-1-(3-METHOXY-[1,1′-BIPHENYL]-4-YL)ISOQUINOLINE-6-SULFONAMIDE], the IC50 in data set [1] (PatchXpress (PX), in vitro) is 311 nM; in data set [2] (PatchXpress (PX), in vitro), above 10000 nM.

As to `COc1cc(-c2ccccc2)ccc1-c1nccc2cc(S(=O)(=O)Nc3nncs3)ccc12` [Example 50], the IC50 is 174 nM in data set [1] (PatchXpress (PX), in vitro) and above 10000 nM in data set [2] (PatchXpress (PX), in vitro).

As to `COc1nc(OCC2CCCCC2)ccc1-c1nccc2cc(S(=O)(=O)Nc3ccncn3)ccc12` [Example 66, 1-(6-(cyclohexylmethoxy)-2-methoxy-3-pyridinyl)-N-4-pyrimidinyl-6-isoquinolinesulfonamide], the IC50 was 349 nM in data set [1] (PatchXpress (PX), in vitro) and above 10000 nM in data set [2] (PatchXpress (PX), in vitro).

As to `COc1nc(OCC2CCC(F)(F)CC2)ccc1-c1nccc2cc(S(=O)(=O)Nc3ccncn3)ccc12` [Example 69, 1-(6-((4,4-difluorocyclohexyl)methoxy)-2-methoxy-3-pyridinyl)-N-4-pyrimidinyl-6-isoquinolinesulfonamide], the concentration for half-maximal inhibition (IC50) was 459 nM in data set [1] (PatchXpress (PX), in vitro) and above 30000 nM in data set [2] (PatchXpress (PX), in vitro).

In the case of `COc1nc(NC2CCCCC2)ccc1-c1nccc2cc(S(=O)(=O)Nc3ccncn3)ccc12` [Example 73, 1-(6-(cyclohexylamino)-2-methoxy-3-pyridinyl)-N-4-pyrimidinyl-6-isoquinolinesulfonamide], the IC50 in data set [1] (PatchXpress (PX), in vitro) is 436 nM; in data set [2] (PatchXpress (PX), in vitro), above 10000 nM.

For the compound `COc1cc(-c2ccc(Cl)c(F)c2)c(C#N)cc1-c1nccc2cc(S(=O)(=O)Nc3ccon3)ccc12` [Example 76, 1-(4′-chloro-2-cyano-3′-fluoro-5-methoxy-4-biphenylyl)-N-3-isoxazolyl-6-isoquinolinesulfonamide], the IC50 was 58.5 nM in data set [1] (PatchXpress (PX), in vitro) and above 10000 nM in data set [2] (PatchXpress (PX), in vitro).

For the origin of these results see patent US9776995B2, “Bicyclic sulfonamide compounds as sodium channel inhibitors” (AMGEN INC., priority 2013, dated 2017).
